Patent publication US20250340575A1, “4-AMINOPYRROLO[2,1-F][1,2,4]TRIAZINES AND PREPARATION AND USES THEREOF” (Biosplice Therapeutics, Inc., priority 2024, published 2025)
pIC50: −log10 of the molar value.

Target: recombinant DYRK1A kinase (Homo sapiens, UniProt Q13627)
Test: DYRK1A kinase assay (Ser/Thr 18 peptide Z-lyte FRET)
Format: biochemical
Settings: DYRK1A 0.25 μg/mL, ATP 15 μM, Ser/Thr peptide 18 4 μM, one hour at room temperature, 11-point dose-response from 10 μM
Procedure: Representative compounds were screened using the assay procedure for DYRK1A kinase activity as described below.
Each compound was dissolved in DMSO as a 10 mM stock and used to prepare compound source plates. Serial dilution (1:3, 11-point dose-response curves from 10 μM to 0.00016 μM) and compound transfer was performed using the ECHO 550 (Labcyte, Sunnyvale, CA) into 1536-well black-walled round bottom plates (Corning).
The DYRK1A kinase assay was run using the Ser/Thr 18 peptide Z-lyte assay kit according to manufacturer's instructions (Life Technologies—a Division of Thermo-Fisher). This is a non-radioactive assay using fluorescence resonance energy transfer (FRET) between coumarin and fluorescein to detect kinase activity which is represented as a ratio of coumarin emission/fluorescein emission.
Briefly, recombinant DYRK1A kinase, ATP and Ser/Thr peptide 18 were prepared in 1× Kinase buffer to final concentrations of 0.25 μg/mL, 15 μM, and 4 μM respectively. The mixture was allowed to incubate with the representative compounds for one hour at room temperature. All reactions were performed in duplicate. Unphosphorylated (“0% Control”) and phosphorylated (“100% control”) forms of Ser/Thr 18 served as control reactions. Additionally, an 11-point dose-response curve of Staurosporine (1 uM top) was run to serve as a positive compound control.
After incubation, Development Reagent A was diluted in Development Buffer then added to the reaction and allowed to further incubate for one hour at room temperature. The plate was read at Ex 400 Em 455 to detect the coumarin signal and Ex 400 Em 520 to measure the signal (EnVision Multilabel Plate Reader, PerkinElmer).
The Emission ratio (Em) was calculated as a ratio of the coumarin (C) emission signal (at 445 nm)/Fluorescein (F) emission signal (at 520 nm). The percent phosphorylation was then calculated using the following formula: [1−((Em ratio×F100%)−C100%)/((C0%−C100%)+(Em ratio×(F100%−F0%)))]. Dose-response curves were generated, and inhibitory concentration (IC50) values were calculated using non-linear regression curve fit in the Dotmatics' Studies Software (Bishops Stortford, UK).

| Structure (SMILES) | pIC50 |
| --- | --- |
| Nc1nc(N[C@@H]2CCN(C3COC3)CC2(F)F)nn2ccc(-c3ccc4ncn(CC(F)(F)F)c4n3)c12 [Compound 131, (R)—N^2-(3,3-Difluoro-1-(oxetan-3-yl)piperidin-4-yl)-5-(3-(2,2,2-trifluoroethyl)-3H-imidazo[4,5-b]pyridin-5-yl)pyrrolo[2,1-f][1,2,4]triazine-2,4-diamine] | 8.33 |
| CNc1nc(N[C@H]2C[C@](C)(O)C2)nn2ccc(-c3ccc4ncn(CC(F)(F)F)c4n3)c12 [Compound 132, (1r,3r)-1-Methyl-3-((4-(methylamino)-5-(3-(2,2,2-trifluoroethyl)-3H-imidazo [4,5-b]pyridin-5-yl)pyrrolo[2,1-f][1,2,4]triazin-2-yl)amino)cyclobutan-1-ol] | 8.92 |
| CNc1nc(N[C@H]2CCN(C(C)=O)C[C@H]2F)nn2ccc(-c3ccc4nc(C)n(C(F)F)c4n3)c12 [Compound 134] | 8.30 |
| CNc1nc(N[C@H]2CCN(C3COC3)C[C@H]2F)nn2ccc(-c3ccc4nc(C)n(C(F)F)c4n3)c12 [Compound 135, 5-(3-(Difluoromethyl)-2-methyl-3H-imidazo[4,5-b]pyridin-5-yl)-N^2-((3R,4S)-3-fluoro-1-(oxetan-3-yl)piperidin-4-yl)-N^4-methylpyrrolo[2,1-f][1,2,4]triazine-2,4-diamine] | 8.19 |
| Cc1nc2ccc(-c3ccn4nc(N[C@@H]5CCN(C6COC6)C[C@@H]5F)nc(N)c34)nc2n1CCF [Compound 141, N^2-((3S,4R)-3-Fluoro-1-(oxetan-3-yl)piperidin-4-yl)-5-(3-(2-fluoroethyl)-2-methyl-3H-imidazo[4,5-b]pyridin-5-yl)pyrrolo[2,1-f][1,2,4]triazine-2,4-diamine] | 8.47 |
| Cc1nc2ccc(-c3ccn4nc(N[C@@H]5CCN(C)CC5(F)F)nc(N)c34)nc2n1CCF [Compound 142, (R)—N^2-(3,3-Difluoro-1-methylpiperidin-4-yl)-5-(3-(2-fluoroethyl)-2-methyl-3H-imidazo[4,5-b]pyridin-5-yl)pyrrolo[2,1-f][1,2,4]triazine-2,4-diamine] | 8.57 |
| Cc1nc2ccc(-c3c(F)cn4nc(N[C@H]5CC[C@](C)(O)CC5)nc(N)c34)nc2n1CCF [Compound 143, (1r,4r)-4-((4-Amino-6-fluoro-5-(3-(2-fluoroethyl)-2-methyl-3H-imidazo[4,5-b]pyridin-5-yl)pyrrolo[2,1-f][1,2,4]triazin-2-yl)amino)-1-methylcyclohexan-1-ol] | 8.89 |
| CC(=O)N1CC[C@H](Nc2nc(N)c3c(-c4ccc5nc(C)n(CCF)c5n4)c(F)cn3n2)[C@H](F)C1 [Compound 144, 1-((3R,4S)-4-((4-Amino-6-fluoro-5-(3-(2-fluoroethyl)-2-methyl-3H-imidazo [4,5-b]pyridin-5-yl)pyrrolo[2,1-f][1,2,4]triazin-2-yl)amino)-3-fluoropiperidin-1-yl)ethan-1-one] | 8.38 |
| Cc1nc2ccc(-c3c(F)cn4nc(N[C@H]5CCN(C6COC6)C[C@H]5F)nc(N)c34)nc2n1CCF [Compound 145, 6-Fluoro-N2-((3R,4S)-3-fluoro-1-(oxetan-3-yl)piperidin-4-yl)-5-(3-(2-fluoroethyl)-2-methyl-3H-imidazo[4,5-b]pyridin-5-yl)pyrrolo[2,1-f][1,2,4]triazine-2,4-diamine] | 8.77 |
| Cc1nc2ccc(-c3c(F)cn4nc(N[C@@H]5CCN(C)CC5(F)F)nc(N)c34)nc2n1CCF [Compound 146, (R)—N^2-(3,3-Difluoro-1-methylpiperidin-4-yl)-6-fluoro-5-(3-(2-fluoroethyl)-2-methyl-3H-imidazo[4,5-b]pyridin-5-yl)pyrrolo[2,1-f][1,2,4]triazine-2,4-diamine] | 9.10 |
| CC(=O)N1CC[C@@H](Nc2nc(N)c3c(-c4ccc5nc(C)n(CCF)c5n4)c(F)cn3n2)C(F)(F)C1 [Compound 147, (R)-1-(4-((4-Amino-6-fluoro-5-(3-(2-fluoroethyl)-2-methyl-3H-imidazo[4,5-b]pyridin-5-yl)pyrrolo[2,1-f][1,2,4]triazin-2-yl)amino)-3,3-difluoropiperidin-1-yl)ethan-1-one] | 8.85 |
